The text below walks through data of patent publication US6500813B1, “Ophthalmic composition containing active vitamin D” (priority 1995, dated 2002).

The subject of one data set is laser-irradiated cornea. Kind of data set: Test Example 3: corneal turbidity rating after excimer laser (PTK) irradiation in rabbits. The note with it: 10^−7% solution, 20 μl/dose, 3 times/day over 14 days. It is filed as in vivo, Japan white rabbits. The method, then:
In this test, 8 Japan white rabbits each weighing 2 kg were used. A laser beam was focused on the corneal center of the right eye of each animal using an excimer laser oscillator (available from Summit Technology Co. U.S.) under anesthesia. The laser beam irradiation was carried out according to the surface-incision mode (PTK), i.e., at an energy density of 165 mj/cm^2, a rate of incision to a depth of 0.25 μm/pulse, a diameter of the incised circular area of 4.5 mm and an irradiated pulse number of 300.
These 8 test animals which had been irradiated with the laser beam were, at random, divided into two groups each comprising 4 animals, one of which constituted a drug-administered group and the other of which constituted a control group. […]
After 24 hours from the laser irradiation, the drug-administered group and the control-group were treated by dropping, in the right eye, a 10^−7% active vitamin D-containing solution [22-oxa-1β,25-dihydroxy vitamin D3: OCT (available from Chugai Pharmaceutical Co., Ltd.)] and the OCT solvent base, respectively, at 20 μl/dose and 3 times/day over 14 days. After 7 and 15 days from the irradiation, the extent of the turbidity of each cornea was evaluated on the basis of the findings for the 8 animals observed under a slit lamp microscope. […]

Data set [1] relates to laser-irradiated cornea (corneal epithelial cells). Kind of data set: Test Example 1: excimer laser (PTK) corneal incision in rabbits, slit lamp and light microscope observation. It is filed as in vivo, Japan white rabbits. The method, then:
In this test, 6 Japan white rabbits each weighing 2 kg were used. After anesthetizing each animal by intramuscularly injecting an analgesic-anesthetic at the femoral regions thereof and by simultaneously dropping local anesthetic in the eyes, a laser beam was focused on the corneal center of the right eye using an excimer laser oscillator (available from Summit Technology Co. U.S.). The laser beam irradiation was carried out according to the surface-incision mode (PTK), i.e., at an energy density of 165 mj/cm^2, a rate of incision to a depth of 0.25 μm/pulse, an incised surface diameter of 4.5 mm and a pulse number of 300.
After the laser beam irradiation, an eye drop and an ointment containing an antibiotic agent were administered to the eye. Three (Group A) out of these six animals were treated by dropping, in the right eye, an active vitamin D-containing solution (1 α-monohydroxy vitamin D: 0.01 μg/drop or 0.5 μg/ml; an alpha calcidol solution) in a rate of one drop (0.02 ml)/dose/day, starting from 24 hours after the laser beam irradiation. On the other hand, the remaining three (Group B) out of these six animals constituted a control group and were treated in the same manner by dropping, in the right eye, an ophthalmic buffer solution BSS at a rate of one drop/dose/day.
After 4, 7 and 12 days from the laser beam irradiation, the right eyes of animals in Group A and Group B (one animal each) were observed under a slit lamp microscope, followed by slaughtering one animal in each Group and then enucleation of the eyeballs. The cornea was removed from the sclerocornea of each eyeball, followed by fixing through immersion in a Carnoa's solution for 4 hours, dehydration in dry ethanol, paraffin-embedded to form a corneal slice with a thickness of 4 μm, removing paraffin by xylol, carrying out the hematoxylin-eosin staining and/or PAS staining and observation of the corneal slice under a light microscope.

For data set [2], the system named is lens capsule, aqueous humor and intraocular lens. Kind of data set: Test Example 2: lens removal by ultrasonic emulsification and aspiration with intraocular lens transplantation in rabbits, slit lamp observation of turbidity. The note with it: for fibrin deposition in the anterior chamber: versus sesame oil control (animal C). It is filed as in vivo, Japan white house rabbits. An excerpt: In this test, three Japan white house rabbits each weighing 2 kg were used. After anesthetizing each animal by intramuscularly injecting an analgesic-anesthetic at the femoral regions thereof and by simultaneously dropping a local anesthetic in the eyes, the sclerocornea of each animal was dissected over a length of 3.5 mm, followed by excising a circular piece of the arterior capsule at a diameter of about 5 mm from the lens capsule under perfusion of the ophthalmic buffer solution BSS, removal of the lens nuclei and the cortex by the ultrasonic emulsification and aspiration technique, swelling the lens capsule by injecting a viscoelastic substance, then widening the incised port of the sclerocornea to about 7 mm and transplantation, into the lens capsule, of a poly(methyl methacrylate) intraocular lens provided with an optical part having a diameter of 6 mm. After the removal of the viscoelastic substance under vacuum suction, the incised wound of the sclerocornea was sutured with three stitches using a 9-0 nylon suture to thus complete the operation. After the completion of the operation, an eye drop and an ointment containing an antibiotic agent were administered to the conjunctiva. The right eyes of these three animals were subjected to the ultrasonic emulsification and aspiration technique and the transplantation of an intraocular lens.
One (A) out of these three animals was treated with a calcitriol solution in a rate of 1 to 2 drops/dose/day. The calcitriol solution used was prepared by dissolving and diluting calcitriol (1α,25-dihydroxy vitamin D) in ethanol and then further diluting (1:100) the resulting dilute solution, to a calcitriol concentration of 0.5 μg/ml, with an ophthalmic oil base consisting of purified sesame oil. One (B) out of the three animals was treated by orally administering the calcitriol solution in a rate of 1 ml/dose/day using a dropping pipette. The remaining one (C) out of the three animals was treated by dropping ophthalmic purified sesame oil free of any calcitriol in the right eye in a rate of 1 to 2 drops/dose/day. After the mydriasis at 1, 4, 7, 14 and 28 days from the operation, the lens capsule, aqueous humor and intraocular lens for each animal were inspected for the turbidity through the observation under a slit lamp microscope.

Where [3] appears, read: animal A, eye drop, after 7 days from the operation.

On to `C=C1/C(=C\C=C2/CCC[C@]3(C)[C@@H]([C@H](C)OCCC(C)(C)O)CC[C@@H]23)C[C@@H](O)C[C@@H]1O` [OCT, 22-oxa-1β,25-dihydroxy vitamin D3], for which the “degree of turbidity relative to that observed for the control group” value in the data set on laser-irradiated cornea is “about ½”. Besides, the “degree of corneal turbidity, rating 0 (no turbidity) to 4 (complete opacification), average of four animals” value in the data set with laser-irradiated cornea (right eye, evaluated after 7 and 15 days, control group 3.5) came to 2.0.

Turning to `C=C1/C(=C\C=C2/CCC[C@]3(C)[C@@H]([C@H](C)CCCC(C)C)CC[C@@H]23)C[C@@H](O)C[C@@H]1O` [alpha calcidol, 1α-monohydroxy vitamin D], the “opacity of the laser-irradiated site under the slit lamp microscope” value in data set [1] (Group A, right eye, eye drop 0.01 μg/drop (0.5 μg/ml), one drop/dose/day from 24 hours after irradiation, observed after 4, 7 and 12 days, versus BSS control (Group B)) is given as “quite slight opacity at the peripheral edge of the laser-irradiated site”. In addition, the “piling up growth of the corneal epithelial cells, sliced cornea under a light microscope” value in data set [1] (Group A, right eye, eye drop 0.01 μg/drop, one drop/dose/day, control Group B ran up to 10 layers) is recorded as “not observed such tendency as piling up growth”. Besides, the “side effect (bleeding, fibrin-deposition, corneal haze/opacity, intraocular inflammation)” value in data set [1] (Test Example 1, eye drop) is “not observed any side effect”.

As for `C=C1/C(=C\C=C2/CCC[C@]3(C)[C@@H]([C@H](C)CCCC(C)(C)O)CC[C@@H]23)C[C@@H](O)C[C@@H]1O` [calcitriol, 1α,25-dihydroxy vitamin D], the “side effect (bleeding, fibrin-deposition, corneal haze/opacity, intraocular inflammation)” value in data set [2] (Test Example 2, eye drop or oral) was “not observed any side effect”. Further, the “transparency, eye drop (animal A) compared with oral (animal B)” value in data set [2] (after 28 days from the operation) is “better than that observed for the animal B”. Moreover, the posterior synechia result in data set [2] (animal A, eye drop) is reported as “did not cause any posterior synechia”; in data set [2] (animal B, oral), “did not cause any posterior synechia”. Besides, the “fibrin deposition in the anterior chamber” value is listed as “very low as compared with that observed for the animal C” in data set [2] (animal A, eye drop 0.5 μg/ml in sesame oil, 1 to 2 drops/dose/day) and “very low as compared with that observed for the animal C” in data set [2] (animal B, oral 1 ml/dose/day of 0.5 μg/ml solution). Also, the “transparency of the anterior capsule” value in data set [2] (setting [3]) is recorded as “maintained desired transparency”. The “wrinkling and opacity of the anterior capsule” value in data set [2] (setting [3]) was “only slight wrinkling of the anterior capsule and opacity of the periphery thereof”. Moreover, the “opacity and wrinkling of the anterior capsule” value in data set [2] (animal A, eye drop, after 28 days from the operation) was “slight opacity and wrinkling of the anterior capsule”; in data set [2] (animal B, oral, after 28 days from the operation), “slight opacity and wrinkling of the anterior capsule”.
